Here are results for 23 compounds from PMC4890168 (Journal of medicinal chemistry, 2016).

For assay [1], the target named is PKA (Homo sapiens, UniProt P17612). The assay can be described thus: PKA inhibition, ADP-Glo Kinase Assay. In general terms: In ADP-Glo the light output rises with the ADP produced.
Assay [2] has as its target ROCK1 (Homo sapiens, UniProt Q13464). Briefly: ROCK1 inhibition, ADP-Glo Kinase Assay.
In assay [3] the target is T1, GRK2 (Bos taurus, UniProt P21146, S670A, species not given).
T1 sequence (P21146 1-689 S670A): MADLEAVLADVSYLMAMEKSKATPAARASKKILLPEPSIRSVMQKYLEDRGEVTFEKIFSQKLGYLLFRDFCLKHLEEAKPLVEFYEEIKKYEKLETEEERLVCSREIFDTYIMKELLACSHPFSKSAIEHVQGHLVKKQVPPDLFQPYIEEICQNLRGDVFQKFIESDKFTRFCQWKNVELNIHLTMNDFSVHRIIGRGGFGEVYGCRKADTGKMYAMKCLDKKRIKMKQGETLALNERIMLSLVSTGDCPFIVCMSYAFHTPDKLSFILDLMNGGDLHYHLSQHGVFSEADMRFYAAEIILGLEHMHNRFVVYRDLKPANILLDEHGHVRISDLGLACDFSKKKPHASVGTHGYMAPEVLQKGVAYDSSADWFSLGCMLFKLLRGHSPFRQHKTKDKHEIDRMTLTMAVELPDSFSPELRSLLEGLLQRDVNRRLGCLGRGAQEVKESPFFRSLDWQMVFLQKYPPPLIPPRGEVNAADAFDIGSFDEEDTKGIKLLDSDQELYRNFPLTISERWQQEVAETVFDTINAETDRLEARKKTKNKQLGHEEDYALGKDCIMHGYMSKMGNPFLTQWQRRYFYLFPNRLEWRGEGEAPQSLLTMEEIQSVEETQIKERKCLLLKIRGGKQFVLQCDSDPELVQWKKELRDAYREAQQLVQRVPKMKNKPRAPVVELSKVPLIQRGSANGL
Briefly: GRK2 kinase inhibition. Type of assay: biochemical.

Assay [4] has as its system cardiomyocytes isolated from adult mice. Briefly: Contractility in mouse cardiomyocytes. The conditions noted are these: for potency at stimulating cardiomyocyte contraction: compared with lead 2, isoproterenol stimulation.

Usually IC50 stands for the concentration that gives 50% inhibition. Read a high IC50 as lower potency.

Molecules are shown by their SMILES.

Sequence of ROCK1 (Q13464 whole entry, species assumed): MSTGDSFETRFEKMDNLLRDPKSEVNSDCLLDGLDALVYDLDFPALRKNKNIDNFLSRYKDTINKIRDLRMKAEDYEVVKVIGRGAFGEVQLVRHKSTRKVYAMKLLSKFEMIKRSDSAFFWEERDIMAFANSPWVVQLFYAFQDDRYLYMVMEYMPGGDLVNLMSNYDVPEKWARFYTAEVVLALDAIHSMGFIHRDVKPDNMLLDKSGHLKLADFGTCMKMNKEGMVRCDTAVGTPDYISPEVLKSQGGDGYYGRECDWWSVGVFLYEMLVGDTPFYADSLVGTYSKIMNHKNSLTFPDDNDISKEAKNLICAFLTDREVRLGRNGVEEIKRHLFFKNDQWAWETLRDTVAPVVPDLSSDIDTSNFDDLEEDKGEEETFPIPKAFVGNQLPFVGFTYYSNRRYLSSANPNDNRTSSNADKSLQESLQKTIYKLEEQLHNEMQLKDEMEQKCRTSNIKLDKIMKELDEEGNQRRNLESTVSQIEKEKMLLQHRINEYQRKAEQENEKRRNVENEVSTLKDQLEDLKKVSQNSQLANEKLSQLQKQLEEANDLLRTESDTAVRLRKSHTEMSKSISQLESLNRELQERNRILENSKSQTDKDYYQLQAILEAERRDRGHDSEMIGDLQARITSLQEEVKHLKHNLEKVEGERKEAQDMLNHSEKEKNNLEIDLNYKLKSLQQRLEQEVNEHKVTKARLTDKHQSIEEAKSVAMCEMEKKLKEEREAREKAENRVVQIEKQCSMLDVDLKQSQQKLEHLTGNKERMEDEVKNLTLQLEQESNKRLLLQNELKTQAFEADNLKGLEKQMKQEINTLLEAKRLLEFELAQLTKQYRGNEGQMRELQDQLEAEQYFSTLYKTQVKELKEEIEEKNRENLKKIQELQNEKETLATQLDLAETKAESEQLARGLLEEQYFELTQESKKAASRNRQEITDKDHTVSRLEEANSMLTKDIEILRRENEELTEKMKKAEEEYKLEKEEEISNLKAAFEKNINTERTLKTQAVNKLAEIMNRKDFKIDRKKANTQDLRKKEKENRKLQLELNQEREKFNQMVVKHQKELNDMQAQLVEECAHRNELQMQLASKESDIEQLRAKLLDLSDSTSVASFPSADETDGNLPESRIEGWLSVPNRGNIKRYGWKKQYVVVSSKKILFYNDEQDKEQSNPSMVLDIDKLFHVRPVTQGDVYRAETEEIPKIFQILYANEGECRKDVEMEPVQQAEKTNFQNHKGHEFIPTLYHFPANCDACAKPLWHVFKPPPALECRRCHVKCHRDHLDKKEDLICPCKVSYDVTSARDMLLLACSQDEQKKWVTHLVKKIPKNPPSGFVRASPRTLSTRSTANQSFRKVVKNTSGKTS

On to `COc1ccccc1CNC(=O)c1cc(C2NC(=O)NC(C)=C2C(=O)Nc2ccc3[nH]ncc3c2)ccc1F` (stereo not shown) [Compound 12e, 4-(4-Fluoro-3-((2-methoxybenzyl)carbamoyl)phenyl)-N-(1H-indazol-5-yl)-6-methyl-2-oxo-1,2,3,4-tetrahydropyrimidine-5-carboxamide], for which the IC50 in assay [1] was over 100 µM.
For the compound `CC1=C(C(=O)Nc2ccc3[nH]ncc3c2)C(c2ccc(F)c(C(=O)NCc3ccccn3)c2)NC(=O)N1` (stereo not shown) [Compound 12h, 4-(4-Fluoro-3-((pyridin-2-ylmethyl)carbamoyl)phenyl)-N-(1H-indazol-5-yl)-6-methyl-2-oxo-1,2,3,4-tetrahydropyrimidine-5-carboxamide], in assay [1], the IC50 was over 100 µM. In assay [2], the IC50 is about 0.01 µM and the “increase in potency for ROCK1 over 2” value worked out at 10 fold.
Take `CC1=C(C(=O)Nc2ccc3[nH]ncc3c2)C(c2ccc(F)c(C(=O)NCCc3c(C)cccc3C)c2)NC(=O)N1` (stereo not shown) [Compound 12r, 4-(3-((2,6-Dimethylphenethyl)carbamoyl)-4-fluorophenyl)-N-(1H-indazol-5-yl)-6-methyl-2-oxo-1,2,3,4-tetrahydropyrimidine-5-carboxamide]: the IC50 in assay [1] is over 100 µM.
The same measure, in the same setting: then `CC1=C(C(=O)Nc2ccc3[nH]ncc3c2)C(c2ccc(F)c(C(=O)NCc3c(C(F)(F)F)cccc3C(F)(F)F)c2)NC(=O)N1` (stereo not shown) [Compound 12o, 4-(3-((2,6-Bis(trifluoromethyl)benzyl)carbamoyl)-4-fluorophenyl)-N-(1H-indazol-5-yl)-6-methyl-2-oxo-1,2,3,4-tetrahydropyrimidine-5-carboxamide], with over 100 µM.
As to `COc1ccc(CNC(=O)c2cc(C3NC(=O)NC(C)=C3C(=O)Nc3ccc4[nH]ncc4c3)ccc2F)cc1` (stereo not shown) [Compound 12g, 4-(4-Fluoro-3-((4-methoxybenzyl)carbamoyl)phenyl)-N-(1H-indazol-5-yl)-6-methyl-2-oxo-1,2,3,4-tetrahydropyrimidine-5-carboxamide], the IC50 in assay [1] is over 100 µM.
Turning to `CNC(=O)c1cc(C2NC(=O)NC(C)=C2C(=O)Nc2ccc3[nH]ncc3c2)ccc1F` (stereo not shown) [Compound 12a, 4-(4-Fluoro-3-(methylcarbamoyl)phenyl)-N-(1H-indazol-5-yl)-6-methyl-2-oxo-1,2,3,4-tetrahydropyrimidine-5-carboxamide], the “loss in potency against GRK2 relative to 2” value in assay [3] worked out at 5 fold. This compound showed an IC50 in assay [1] of over 100 µM.
On to `CC1=C(C(=O)N(C)c2ccc3[nH]ncc3c2)C(c2ccc(F)c(C(=O)NCc3c(C)cccc3C)c2)NC(=O)N1` (stereo not shown) [Compound 20, 4-(3-((2,6-Dimethylbenzyl)carbamoyl)-4-fluorophenyl)-N-(1H-indazol-5-yl)-N,6-dimethyl-2-oxo-1,2,3,4-tetrahydropyrimidine-5-carboxamide], for which the “decrease in potency at GRK2 compared to 12m” value in assay [3] is about 70 fold. In assay [1], this compound showed an IC50 of over 100 µM.
Take `CC1=C(C(=O)Nc2ccc3[nH]ncc3c2)C(c2ccc(F)c(C(=O)O)c2)NC(=O)N1` (stereo not shown) [Compound 10, 5-(5-((1H-Indazol-5-yl)carbamoyl)-6-methyl-2-oxo-1,2,3,4-tetrahydropyrimidin-4-yl)-2-fluorobenzoic acid]: in assay [3], the “loss in potency against GRK2 relative to 2” value was 20 fold. Also, in assay [1], the “loss in potency against PKA relative to 2” value is listed as 2 fold.
In turn, `CC1=C(C(=O)Nc2ccc3[nH]ncc3c2)C(c2ccc(F)c(C(=O)NCc3c(F)cccc3F)c2)NC(=O)N1` (stereo not shown) [Compound 12d, 4-(3-((2,6-Difluorobenzyl)carbamoyl)-4-fluorophenyl)-N-(1H-indazol-5-yl)-6-methyl-2-oxo-1,2,3,4-tetrahydropyrimidine-5-carboxamide] returned an IC50 in assay [1] of over 100 µM. For the same compound, the “potency at stimulating cardiomyocyte contraction” value in assay [4] is reported as “equivalent to or slightly more potent than the lead 2”.
For the compound `CC1=C(C(=O)Nc2ccc3c(c2)OCO3)C(c2ccc(F)c(C(=O)NCc3ccccn3)c2)NC(=O)N1` (stereo not shown) [Compound 24, N-(Benzo[d][1,3]dioxol-5-yl)-4-(4-fluoro-3-((pyridin-2-ylmethyl)carbamoyl)phenyl)-6-methyl-2-oxo-1,2,3,4-tetrahydropyrimidine-5-carboxamide], the “kinase inhibition” value in assay [3] (GRK2, GRK1, GRK5, PKA (Table 2)) was “completely inactive”. The compound further showed an IC50 in assay [1] of over 100 µM.
As for `CC1=C(C(=O)Nc2ccc3[nH]ncc3c2)C(c2ccc(F)c(C(=O)NCc3c(C)cccc3C)c2)NC(=O)N1` (stereo not shown) [Compound 12m, 4-(3-((2,6-Dimethylbenzyl)carbamoyl)-4-fluorophenyl)-N-(1H-indazol-5-yl)-6-methyl-2-oxo-1,2,3,4-tetrahydropyrimidine-5 carboxamide], in assay [1], the IC50 is over 100 µM. In addition, the “potency at stimulating cardiomyocyte contraction” value in assay [4] is on record as “equivalent to or slightly more potent than the lead 2”.
On to `COc1cccc(CNC(=O)c2cc(C3NC(=O)NC(C)=C3C(=O)Nc3ccc4[nH]ncc4c3)ccc2F)c1` (stereo not shown) [Compound 12f, 4-(4-Fluoro-3-((3-methoxybenzyl)carbamoyl)phenyl)-N-(1H-indazol-5-yl)-6-methyl-2-oxo-1,2,3,4-tetrahydropyrimidine-5-carboxamide], for which, in assay [1], the IC50 is over 100 µM.
The same measure, in the same setting: then `CC1=C(C(=O)Nc2ccc3[nH]ncc3c2)C(c2ccc(F)c(C(=O)NCc3ncccc3C)c2)NC(=O)N1` (stereo not shown) [Compound 12q, 4-(4-Fluoro-3-(((3-methylpyridin-2-yl)methyl)carbamoyl)phenyl)-N-(1H-indazol-5-yl)-6-methyl-2-oxo-1,2,3,4-tetrahydropyrimidine-5-carboxamide], with over 100 µM; and `CC1=C(C(=O)Nc2ccc3[nH]ncc3c2)C(c2ccc(F)c(C(=O)NCc3ccccc3)c2)NC(=O)N1` (stereo not shown) [Compound 12b, 4-(3-(Benzylcarbamoyl)-4-fluorophenyl)-N-(1H-indazol-5-yl)-6-methyl-2-oxo-1,2,3,4-tetrahydropyrimidine-5-carboxamide], with over 100 µM; and `CC1=C(C(=O)Nc2ccc3[nH]ncc3c2)C(c2ccc(F)c(C(=O)NCc3cc(C(F)(F)F)cc(C(F)(F)F)c3)c2)NC(=O)N1` (stereo not shown) [Compound 12p, 4-(3-((3,5-Bis(trifluoromethyl)benzyl)carbamoyl)-4-fluorophenyl)-N-(1H-indazol-5-yl)-6-methyl-2-oxo-1,2,3,4-tetrahydropyrimidine-5-carboxamide], with over 100 µM.
Still for that read-out and setting: then `CC1=C(C(=O)Nc2ccc3[nH]ncc3c2)C(c2ccc(F)c(C(=O)NCCc3ccncc3)c2)NC(=O)N1` (stereo not shown) [Compound 12j, 4-(4-Fluoro-3-((2-(pyridin-4-yl)ethyl)carbamoyl)phenyl)-N-(1H-indazol-5-yl)-6-methyl-2-oxo-1,2,3,4-tetrahydropyrimidine-5-carboxamide], with over 100 µM; and `CC1=C(C(=O)Nc2ccc3[nH]ncc3c2)C(c2ccc(F)c(CC(=O)NCc3c(C(F)(F)F)cccc3C(F)(F)F)c2)NC(=O)N1` (stereo not shown) [Compound 13b, 4-(3-(2-((2,6-Bis(trifluoromethyl)benzyl)amino)-2-oxoethyl)-4-fluorophenyl)-N-(1H-indazol-5-yl)-6-methyl-2-oxo-1,2,3,4-tetrahydropyrimidine-5-carboxamide], with over 100 µM; and `COc1cccc(OC)c1CNC(=O)Cc1cc(C2NC(=O)NC(C)=C2C(=O)Nc2ccc3[nH]ncc3c2)ccc1F` (stereo not shown) [Compound 13c, 4-(3-(2-((2,6-Dimethoxybenzyl)amino)-2-oxoethyl)-4-fluorophenyl)-N-(1H-indazol-5-yl)-6-methyl-2-oxo-1,2,3,4-tetrahydropyrimidine-5-carboxamide], with over 100 µM.
As to `CC1=C(C(=O)Nc2ccc3[nH]ncc3c2)C(c2ccc(F)cc2)NC(=O)N1` (stereo not shown) [Compound 2, GSK180736A, reference compound], the “concentration showing similar efficacy as paroxetine (10 μM) on contractility” value in assay [4] (isoproterenol 0.5 μM, 10 min pretreatment) came to 1 µM.
In turn, `Fc1ccc([C@@H]2CCNC[C@H]2COc2ccc3c(c2)OCO3)cc1` [Paroxetine, paroxetine, reference compound] showed an IC50 in assay [1] of over 100 µM.
Still for that read-out and setting: in the case of `CC1=C(C(=O)Nc2ccc3[nH]ncc3c2)C(c2ccc(F)c(CC(=O)NCc3c(C)cccc3C)c2)NC(=O)N1` (stereo not shown) [Compound 13a, 4-(3-(2-((2,6-Dimethylbenzyl)amino)-2-oxoethyl)-4-fluorophenyl)-N-(1H-indazol-5-yl)-6-methyl-2-oxo-1,2,3,4-tetrahydropyrimidine-5-carboxamide] it was over 100 µM; in that of `CC1=C(C(=O)Nc2ccc3[nH]ncc3c2)C(c2ccc(F)c(C(=O)NCCc3ccccn3)c2)NC(=O)N1` (stereo not shown) [Compound 12i, 4-(4-Fluoro-3-((2-(pyridin-2-yl)ethyl)carbamoyl)phenyl)-N-(1H-indazol-5-yl)-6-methyl-2-oxo-1,2,3,4-tetrahydropyrimidine-5-carboxamide], over 100 µM.
The same measure, in the same setting: in the case of `CC1=C(C(=O)Nc2ccc3[nH]ncc3c2)C(c2ccc(F)c(C(=O)NCc3cccc(F)c3)c2)NC(=O)N1` (stereo not shown) [Compound 12c, 4-(4-Fluoro-3-((3-fluorobenzyl)carbamoyl)phenyl)-N-(1H-indazol-5-yl)-6-methyl-2-oxo-1,2,3,4-tetrahydropyrimidine-5-carboxamide] it was over 100 µM.
